Results as given in patent US10322131B2, “Hydroxyacid derivatives, a process for their preparation and pharmaceutical compositions containing them” (LES LABORATOIRES SERVIER, priority 2015, dated 2019).

Experiments:
[1] = tested on: H929 cells; experiment: In vitro cytotoxicity (MTT) on H929 multiple myeloma tumour line; type: cell-based; settings: Microculture Tetrazolium Assay
Protocol: The cytotoxicity studies were carried out on the H929 multiple myeloma tumour line.
The cells are distributed onto microplates and exposed to the test compounds for 48 hours.
The cell viability is then quantified by a colorimetric assay, the Microculture Tetrazolium Assay (Cancer Res., 1987, 47, 939-942).

[2] = target: Mcl-1 protein (Homo sapiens, UniProt Q07820); experiment: Inhibition of Mcl-1 by the fluorescence polarisation technique; type: binding; settings: fluorescence polarisation test; Fluorescein labelled ligand 1 nM, Mcl-1 protein 5 nM, ~2 hours at r.t.; read-out: IC50 (M) Mcl-1 FP
Protocol: The relative binding potency of each compound was determined via Fluorescence Polarisation (FP). The method utilised a Fluorescein labelled ligand (Fluorescein-βAla-Ahx-A-REIGAQLRRMADDLNAQY-OH; mw 2,765) which binds to the Mcl-1 protein (such that Mcl-1 corresponds to the UniProtKB® primary accession number: Q07820) leading to an increased anisotropy measured in milli-polarisation (mP) units using a reader. The addition of a compound which binds competitively to the same site as the ligand will result in a greater proportion of unbound ligand in the system indicated by a decrease in mP units.
An 11 point serial dilution of each compound was prepared in DMSO and 2 μl transferred into flat bottomed, low binding, 384-well plate (final DMSO concentration 5%). 38 μl of buffer (10 mM 4-(2-hydroxyethyl)-1-piperazineethanesulfonic acid [HEPES], 150 mM NaCl, 0.05% Tween 20, pH 7.4), containing the Fluorescein labelled ligand (final concentration 1 nM) and Mcl-1 protein (final concentration 5 nM) was then added.
Assay plates were incubated ˜2 hours at r.t. before FP was measured on a Biomek Synergy2 reader (Ex. 528 nm, Em. 640 nm, Cut off 510 nm) and mP units calculated. The binding of increasing doses of test compound was expressed as a percentage reduction in mP compared to a window established between ‘5% DMSO only’ and ‘100% inhibition’ controls. 11-point dose response curves were plotted with XL-Fit software using a 4-Parameter Logistic Model (Sigmoidal Dose-Response Model) and the inhibitory concentrations that gave a 50% reduction in mP (IC50) were determined.

[3] = Homo sapiens, NCI-H929, exposed 48 hours

Sequence of Mcl-1 protein (Q07820 whole entry): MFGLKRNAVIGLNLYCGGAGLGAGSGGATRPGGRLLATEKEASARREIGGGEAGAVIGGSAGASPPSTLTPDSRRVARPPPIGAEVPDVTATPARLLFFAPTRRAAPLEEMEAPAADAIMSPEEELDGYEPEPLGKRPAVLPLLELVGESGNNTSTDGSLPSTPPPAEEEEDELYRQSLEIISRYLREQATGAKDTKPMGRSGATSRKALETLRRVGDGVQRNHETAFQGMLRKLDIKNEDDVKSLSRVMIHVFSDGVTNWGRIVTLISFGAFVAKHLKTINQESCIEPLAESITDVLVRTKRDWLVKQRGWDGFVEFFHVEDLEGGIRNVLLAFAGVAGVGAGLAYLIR

SMILES | IC50 [1, 3] | IC50 [2] | IC50 ([1]; exposed 48 hours)
Cc1c(-c2c(-c3ccc(F)cc3)sc3ncnc(OC(Cc4ccccc4OCc4ccnc(-c5ccccc5OCC5COC(C)(C)O5)n4)C(=O)O)c23)ccc(OCCN2CCN(C)CC2)c1Cl [Example 5, (2R)-2-{[(5Sa)-5-{3-chloro-2-methyl-4-[2-(4-methylpiperazin-1-yl)ethoxyl]phenyl}-6-(4-fluorophenyl)thieno[2,3-d]pyrimidin-4-yl]oxy}-3-{2-[(2-{2-[(2,2-dimethyl-1,3-dioxolan-4-yl)methoxyl]phenyl}pyrimidin-4-yl)methoxy]phenyl}propanoic acid] | 1.65 nM | 3.7e-09 M | –
COCCOCCOc1ccccc1-c1nccc(COc2ccccc2CC(Oc2ncnc3sc(-c4ccc(F)cc4)c(-c4ccc(OCCN5CCN(C)CC5)c(Cl)c4C)c23)C(=O)O)n1 [Example 6, (2R)-2-{[(5Sa)-5-{3-chloro-2-methyl-4-[2-(4-methylpiperazin-1-yl)ethoxy]phenyl}-6-(4-fluoropnhenyl)thieno[2,3-d]pyrimidin-4-yl]oxy}-3-{2-[(2-{2-[2-(2-methoxyethoxy)ethoxy]phenyl}pyrimidin-4-yl)methoxy]phenyl}propanoic acid] | 3.25 nM | 1.57e-08 M | –
COCCOCCOCCOc1ccccc1-c1nccc(COc2ccccc2CC(Oc2ncnc3sc(-c4ccc(F)cc4)c(-c4ccc(OCCN5CCN(C)CC5)c(Cl)c4C)c23)C(=O)O)n1 [Example 7, (2R)-2-{[(5Sa)-5-{3-chloro-2-methyl-4-[2-(4-methylpiperazin-1-yl)ethoxy]phenyl}-6-(4-flurophenyl)thieno[2,3-d]pyrimidin-4-yl]oxy}-3-(2-{[2-(2-{2-[2-(2-methoxyethoxy)ethoxy]ethoxy}phenyl)pyrimidin-4-yl]methoxy}phenyl)propanoic acid] | – | 3.75e-09 M | 4.45 nM
COCc1ccccc1-c1nccc(COc2ccccc2C[C@@H](Oc2ncnc3sc(-c4ccc(F)cc4)c(-c4ccc(OCCN5CCN(C)CC5)c(Cl)c4C)c23)C(=O)O)n1 [Example 8, (2R)-2-{[(5Sa)-5-{3-chloro-2-methyl-4-[2-(4-methylpiperazin-1-yl)ethoxy]phenyl}-6-(4-flurophenyl)thieno[2,3-d]pyrimidin-4-yl]oxy}-3-[2-({2-[2-(methoxymethyl)phenyl]pyrimidin-4-yl}methoxy)phenyl]propanoic acid] | – | 7.35e-09 M | 2.07 nM
COCCOCc1ccccc1-c1nccc(COc2ccccc2CC(Oc2ncnc3sc(-c4ccc(F)cc4)c(-c4ccc(OCCN5CCN(C)CC5)c(Cl)c4C)c23)C(=O)O)n1 [Example 9, (2R)-2-{[(5Sa)-5-{3-chloro-2-methyl-4-[2-(4-methylpiperazin-1-yl)ethoxy]phenyl}-6-(4-fluorophenyl)thieno[2,3-d]pyrimidin-4-yl]oxy}-3-{2-[(2-{2-[(2-methoxyethoxy)methyl]phenyl}pyrimidin-4-yl)methoxy]phenyl}propanoic acid] | 1.4 nM | 8.15e-09 M | –
Cc1c(-c2c(-c3ccc(F)cc3)sc3ncnc(OC(Cc4ccccc4OCc4ccnc(-c5ccccc5COCCO)n4)C(=O)O)c23)ccc(OCCN2CCN(C)CC2)c1Cl [Example 10, (2R)-2-{[(5Sa)-5-{3-chloro-2-methyl-4-[2-(4-methylpiperazin-1-yl)ethoxy]phenyl}-6-(4-fluorophenyl)thieno[2,3-d]pyrimidin-4-yl]oxy}-3-{2-[(2-{2-[(2-hydroxyethoxy)methyl]phenyl}pyrimidin-4-yl)methoxy]phenyl}propanoic acid] | 2.79 nM | 1.09e-08 M | –
Cc1c(-c2c(-c3ccc(F)cc3)sc3ncnc(OC(Cc4ccccc4OCc4ccnc(-c5ccccc5COCC5COC(C)(C)O5)n4)C(=O)O)c23)ccc(OCCN2CCN(C)CC2)c1Cl [Example 11, (2R)-2-{[(5Sa)-5-{3-chloro-2-methyl-4-[2-(4-methylpiperazin-1-yl)ethoxy]phenyl}-6-(4-fluorophenyl)thieno[2,3-d]pyrimidin-4-yl]oxy}-3-(2-{[2-(2-{[(2,2-dimethyl-1,3-dioxolan-4-yl)methoxy]methyl}phenyl)pyrimidin-4-yl]methoxy}phenyl)propanoic acid] | 1.99 nM | 4.05e-09 M | –
